Like-named read-outs stand apart in the source and are kept apart here.

One series deals with P-gp (MDR1). The experiment in a line: MDCK-MDR1 assay (permeability, efflux ratio). The format is in vitro ADME. The settings on record: dog, Papp BA/Papp AB, 60-minute incubation.
The nature of series [1]: Compound exposure in rat brain and plasma after oral dosing (DMPK analysis). The format is in vivo. The settings on record: male, Sprague Dawley, 3 hours post dose; for concentration at 3 h: read-out: Exp (exposure); for Kp at 3 h: brain/plasma, read-out: Brain/Plasma ratio. How it is done:
Young adult Male Sprague Dawley rats of approximately 250 g weight were purchased from Charles River and received 0-30 mg/kg of vehicle (10% HP betaCD+1M MeSO4, pH 2.5) or test compounds (dissolved in vehicle) only by oral gavage (p.o). The compounds are dosed at a volume of 5 ml/kg. Cohorts of 5-10 animals were established for each treatment condition.
At T=180 minutes after initial dosing the animals were stunned and decapitated with a guillotine. Trunk-blood was sampled in EDTA coated tubes after decapitation of the animal. The blood was centrifuged at 2200G at 4° C. for 15 minutes and the plasma was collected and frozen at −80° C. The blood was aliquoted for Aβ ELISA and DMPK analysis. Immediately following sacrifice, the brain was extracted and split into 2 halves. The right hemibrains were snap frozen on dry ice and stored at −80° C. The left half was dissected; with the front forebrain taken for Aβ ELISA and the remainder used for DMPK analysis. These samples were also snap frozen on dry ice and stored at −80° C. until use for analysis.
The results of the administration of representative Compounds of Examples 1, 2, 5, […], of brain and plasma samples collected at 3 hours post dose and then following exposures, as described above, are tabulated below.

For the molecule `COc1cnc(C(=O)Nc2ccc(F)c([C@]34COC[C@@]3(F)C[C@@](C)(F)C(N)=N4)c2)cn1` [Example 7, N-(3-((3R,4aR,7aS)-2-amino-3,4a-difluoro-3-methyl-3,4,4a,5,7,7a-hexahydrofuro[3,4-b]pyridin-7a-yl)-4-fluorophenyl)-5-methoxypyrazine-2-carboxamide], the efflux ratio at 60 min, 0.5 μM in the series with P-gp (MDR1) worked out at 0.94. Also, the concentration at 3 h in series [1] (Brain, 10 mg/kg p.o.) was found to be 93 ng/g; in series [1] (Brain, 30 mg/kg p.o.), 479 ng/g; in series [1] (Plasma, 10 mg/kg p.o.), 88 ng/g; in series [1] (Plasma, 30 mg/kg p.o.), 239 ng/g. The values for the Kp at 3 h in series [1] (10 mg/kg p.o.) and in series [1] (30 mg/kg p.o.) were 1.05 and 2.01, respectively.
As for `[2H]C([2H])([2H])Oc1ccc(C(=O)Nc2ccc(F)c([C@]34COC[C@H]3C[C@@](F)(CF)C(N)=N4)c2)nc1` [Example 22, N-(3-((3S,4aS,7aS)-2-amino-3-fluoro-3-(fluoromethyl)-3,4,4a,5-tetrahydrofuro[3,4-b]pyridin-7a-yl)-4-fluorophenyl)-5-(methoxy-d3)picolinamide], in the series with P-gp (MDR1), the efflux ratio at 60 min, 0.5 μM was 1.85. The concentration at 3 h in series [1] (Brain, 10 mg/kg p.o.) was found to be 153 ng/g; in series [1] (Brain, 30 mg/kg p.o.) it was 776 ng/g; in series [1] (Plasma, 10 mg/kg p.o.), 399 ng/g; in series [1] (Plasma, 30 mg/kg p.o.), 1830 ng/g. Moreover, the values for the Kp at 3 h in series [1] (10 mg/kg p.o.) and in series [1] (30 mg/kg p.o.) were 0.38 and 0.42, respectively.

The values above are taken from patent US20180230160A1, “2-AMINO-7A-PHENYL-3,4,4A,5,7,7A-HEXAHYDROFURO[3,4-B]PYRIDINES AS BACE1 INHIBITORS” (H. Lundbeck A/S, priority 2015, published 2018).
